{
  "source": "patent US20240201173A1",
  "about": "“Enamel Repair Visualization and Quantification” (Colgate-Palmolive Company, priority 2022, published 2024)",
  "key": {"[1]": {"test": "Knoop microhardness repair of acid-etched bovine enamel blocks after treatment and remineralization", "settings": "1% citric acid etch 10 min, 40 microliters for ten minutes at room temperature, Remineralization Solution overnight at 37° C.", "description": "Bovine enamel blocks are obtained from sound bovine incisors without defects. The labial surface of the bovine teeth is cut to provide enamel specimens of about 3×3×2 mm in size. The enamel layer is about 1 mm thick and the dentin left in the specimen is about 1 mm thick.\nEtched enamel samples are prepared by treatment with 1% aqueous citric acid (pH 3.6) for 10 minutes, followed by rinsing with deionized water. Three bovine enamel blocks are prepared, one for the test solution, one for a positive control solution, and one for a negative control solution.\nEtched bovine enamel samples are treated with 40 microliters of the polyelectrolyte solution A, with sodium fluoride solution, or with water, for ten minutes at room temperature. […]\nKnoop Hardness (KHN) is a measure of hardness of a material calculated by measuring the indentation produced by a diamond tip that is pressed onto the surface of a sample. Using a calibrated microscope, the area of the impression can be determined, and from the area of the indentation (D) in […], and the applied load (F) in kilograms force, the Knoop Hardness is calculated as: KHN=14.229(F/D^2). […]\nKHN is determined using Knoop microhardness tester. […] A value for Percentage of Hardness Repair (% HR) is calculated according to the following formula: […]"}, "[2]": {"test": "Single-block enamel repair evaluation, solution samples (Keyence microscope step height, light microscopy, SEM)", "set-up": "species or system bovine", "description": "The left half of the block (“sound”) is covered using an acid-resistant nail polish, which is then allowed to air dry. The right half of the block (“damaged” and “repaired”) is then treated with 1% citric acid (pH 3.6) for ten minutes to etch the surface. After the treatment, the surface of the block is rinsed with deionized water. The top right corner of the block (“damaged”) is then covered with the same acid-resistant nail polish and air dried. The test formulation is then applied to the bottom right corner of the block (“repaired”), for example, for a ten-minute treatment, followed by rinsing with deionized water. Following the treatment, the enamel blocks are immersed in a Remineralization Solution (0.2205 g/L CaCl2·2H2O, 0.1225 g/L KH2PO4, 9.6915 g/L KCl and 4.766 g/L HEPEs buffer, pH adjusted to 7 with NaOH) overnight at 37° C., and the process repeated for 2-4 days (the blocks immersed daily in fresh remineralization solution). Following this, the blocks are removed, rinsed with deionized water and air dried. The nail polish covers are then removed using acetone solvent, and the surface of the enamel blocks is visualized, for example, by light microscopy, confocal laser scanning microscopy, scanning probe microscopy, or scanning electron microscopy.\nA Keyence microscope is used to capture the surface morphology and to measure the step height of the treated samples. A Phenom ProX Desktop scanning electron microscope is used to observe the repaired enamel crystals. Bovine enable blocks are treated with either water, the sodium fluoride solution, or the 10 mg/mL ePL+0.06 mg/mL malic acid solution (Solution A above)."}},
  "data": [
    {"smiles": "[F-].[Na+]", "note": "[NaF Control, sodium fluoride]", "values": [
      {"measurement": "% HR (Percentage of Hardness Repair)", "setting": "[1]", "value": 41.0, "unit": "%"},
      {"measurement": "% HR (Percentage of Hardness Repair)", "setting": "[1]; listed as sodium fluoride", "value": "did not reach half of original hardness levels"},
      {"measurement": "% Repair (Step height)", "setting": "[2]; 1% citric acid etch 10 min, ten-minute treatment, remineralization repeated 2-4 days", "value": 65.3, "unit": "%"},
      {"measurement": "enamel surface gaps, scanning electron microscopy", "setting": "[2]; gaps from acid etching", "value": "some healing"},
      {"measurement": "surface elevation, 3-D Keyence photomicrographs (FIG. 3)", "setting": "[2]; height vs sound enamel side", "value": "do not restore the enamel to the original height"},
      {"measurement": "surface morphology of repaired side, light microscopy (FIG. 2)", "setting": "[2]; repaired vs damaged side of same block", "value": "a clear interface between “damaged” and “repaired” sides is observed"}
    ]}
  ]
}
